Experimental data reported in ChEMBL document CHEMBL1156981, “NGF-potentiating vibsane-type diterpenoids from Viburnum sieboldii” (Bioorg Med Chem Lett, 2010).
Calls of active or inactive are those of the source. No cut-off for these calls is given here.

Legend:
Assay type in all cases: functional, cell-based
[1] = tested on: PC-12; experiment: Potentiation of NGF-induced neurite outgrowth in rat PC12 cells assessed increase in neurite length extending from cell bodies after 48 hrs by phase-contrast microscopy
[2] = tested on: PC-12; experiment: Potentiation of NGF-induced neurite outgrowth in rat PC12 cells assessed as morphological changes after 48 hrs by phase-contrast microscopy
[3] = tested on: PC-12; experiment: Induction of neurite outgrowth in rat PC12 cells assessed as morphological changes after 48 hrs by phase-contrast microscopy
[4] = tested on: PC-12; experiment: Potentiation of NGF-induced neurite outgrowth in rat PC12 cells assessed increase in neurite length extending from cell bodies at 0.1 to 40 uM after 48 hrs by phase-contrast microscopy
[5] = tested on: PC-12; experiment: Potentiation of NGF-induced neurite outgrowth in rat PC12 cells assessed as morphological changes at 0.1 to 40 uM after 48 hrs by phase-contrast microscopy

Compound | Activity [1] | Activity [2] | Activity [3] | Activity [4] | Activity [5]
CO[C@@]1(C)C[C@@H]2OCC3=CC[C@](C)(C/C=C/C(C)C)[C@@H](/C=C/OC(=O)C=C(C)C)[C@]32O1 | Dose-dependent effect | Dose-dependent effect | inactive | – | –
COC(C)(C)/C=C/C[C@@]1(C)CC=C2CO[C@H]3C[C@@](C)(OC)O[C@@]23[C@@H]1/C=C/OC(=O)C=C(C)C | – | – | inactive | – | –
COC(C)(C)/C=C/C[C@@]1(C)CC=C(CO)C(=O)[C@H](CC(C)=O)[C@@H]1/C=C/OC(=O)C=C(C)C | inactive | – | inactive | inactive | inactive
COC(C)(C)/C=C/C[C@@]1(C)CC=C(CO)C(=O)[C@@H](CC(C)=O)[C@@H]1/C=C/OC(=O)C=C(C)C | – | – | inactive | inactive | inactive
COC(C)(C)/C=C/C[C@@]1(C)CC=C2CO[C@H]3C[C@](C)(OC)O[C@@]23[C@@H]1/C=C/OC(=O)C=C(C)C | Dose-dependent effect | Dose-dependent effect | inactive | – | –
CC(=O)C[C@@H]1C[C@@]2(C)CC=C3CO[C@@H](CC(C)=O)[C@]3(O1)[C@@H]2/C=C/OC(=O)C=C(C)C | – | – | inactive | – | –
COC(C)(C)/C=C/C[C@@]1(C)CC=C2CO[C@H]3C[C@@](C)(OC)O[C@@]23[C@@H]1/C=C\OC(=O)C=C(C)C | Dose-dependent effect | Dose-dependent effect | inactive | – | –
CO[C@]1(C)C[C@@H]2OCC3=CC[C@](C)(C/C=C/C(C)C)[C@@H](/C=C/OC(=O)C=C(C)C)[C@]32O1 | Dose-dependent effect | Dose-dependent effect | inactive | – | –
